{"source": "patent US11311520B2", "about": "“Substituted dihydroimidazopyridinediones as MKNK1 and MKNK2 inhibitors” (Bayer Pharma Aktiengesellschaft, priority 2017, dated 2022)"}
{"biological_target": "human full-length MKNK1 (Homo sapiens (Human), UniProt Q9BUB5, T344D)", "sequence (Q9BUB5 other isoform, or with tags, fused parts or gaps T344D)": "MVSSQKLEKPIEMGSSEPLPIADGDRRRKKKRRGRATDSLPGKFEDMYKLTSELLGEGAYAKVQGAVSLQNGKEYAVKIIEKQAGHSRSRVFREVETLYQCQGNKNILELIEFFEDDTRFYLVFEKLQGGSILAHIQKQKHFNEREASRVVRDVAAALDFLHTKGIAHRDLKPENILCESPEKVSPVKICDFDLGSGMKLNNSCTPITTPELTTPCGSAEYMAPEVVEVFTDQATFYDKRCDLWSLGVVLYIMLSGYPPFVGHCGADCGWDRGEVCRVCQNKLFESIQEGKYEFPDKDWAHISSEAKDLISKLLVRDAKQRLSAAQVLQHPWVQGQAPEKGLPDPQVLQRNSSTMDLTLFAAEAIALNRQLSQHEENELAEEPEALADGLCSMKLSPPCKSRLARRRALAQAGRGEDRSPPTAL", "assay": "MKNK1 kinase high ATP assay (TR-FRET)", "type": "biochemical", "settings": "2 mM ATP, 15 min preincubation with enzyme, GST-MKNK1 (T344D)", "procedure,_shortened": "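GST-tagged full-length human MKNK1 (1-424, T344D, baculovirus-expressed) preincubated 15 min at 22 °C with compound, then reacted 30 min at 22 °C with 2 mM ATP and 0.06 μM biotinylated peptide (final) in HEPES pH 7.5. Phospho-substrate by TR-FRET (665/622 nm ratio), normalised to no-inhibitor and no-enzyme controls.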", "units": {"IC50": "nM"}}
{"smiles": "Cc1cc(Nc2ncnc3sc(C(N)=O)cc23)c(=O)n2c1C(=O)NC21CCCCC1", "note": "[Example 97, 4-[(8′-Methyl-1′,5′-dioxo-1′,5′-dihydro-2′H-spiro[cyclohexane-1,3′-imidazo[1,5-a]pyridin]-6′-yl)amino]thieno[2,3-d]pyrimidine-6-carboxamide]", "IC50": 5.1}
{"smiles": "Cc1cc(Nc2ncnc3ccc(Cl)cc23)c(=O)n2c1C(=O)NC21CCCC1", "note": "[Example 98, 6′-[(6-Chloroquinazolin-4-yl)amino]-8′-methyl-2′H-spiro[cyclopentane-1,3′-imidazo[1,5-a]pyridine]-1′,5′-dione]", "IC50": 7.6}
{"smiles": "Cc1cc(Nc2ncnc3ccc(Cl)cc23)c(=O)n2c1C(=O)NC21CCC(F)(F)CC1", "note": "[Example 99, 6′-[(6-chloroquinazolin-4-yl)amino]-4,4-difluoro-8′-methyl-2′H-spiro[cyclohexane-1,3′-imidazo[1,5-a]pyridine]-1′,5′-dione]", "IC50": 18.8}
{"smiles": "Cc1cc(Nc2ncnc3scnc23)c(=O)n2c1C(=O)NC21CCCC1", "note": "[Example 100, 8′-Methyl-6′-([1,3]thiazolo[5,4-d]pyrimidin-7-ylamino)-2′H-spiro[cyclopentane-1,3′-imidazo[1,5-a]pyridine]-1′,5′-dione]", "IC50": 70.5}
{"smiles": "Cc1cc(Nc2ncnc3scnc23)c(=O)n2c1C(=O)NC21CCC(F)(F)CC1", "note": "[Example 101, 4,4-Difluoro-8′-methyl-6′-([1,3]thiazolo[5,4-d]pyrimidin-7-ylamino)-2′H-spiro[cyclohexane-1,3′-imidazo[1,5-a]pyridine]-1′,5′-dione]", "IC50": 187}
{"smiles": "Cc1cc(Nc2ncnc3sc(C(N)=O)cc23)c(=O)n2c1C(=O)NC21CCCC1", "note": "[Example 102, 4-[(8′-Methyl-1′,5′-dioxo-1′,5′-dihydro-2′H-spiro[cyclopentane-1,3′-imidazo[1,5-a]pyridin]-6′-yl)amino]thieno[2,3-d]pyrimidine-6-carboxamide]", "IC50": 5.7}
{"smiles": "Cc1cc(Nc2ncnc3c2CN(C(=O)OC(C)(C)C)C3)c(=O)n2c1C(=O)NC21CCCC1", "note": "[Example 103, tert-Butyl 4-[(8′-methyl-1′,5′-dioxo-1′,5′-dihydro-2′H-spiro[cyclopentane-1,3′-imidazo[1,5-a]pyridin]-6′-yl)amino]-5,7-dihydro-6H-pyrrolo[3,4-d]pyrimidine-6-carboxylate]", "IC50": 4.7}
{"smiles": "Cc1cc(Nc2ncnc3c2CN(C(=O)OC(C)(C)C)C3)c(=O)n2c1C(=O)NC21CCC(F)(F)CC1", "note": "[Example 104, tert-Butyl 4-[(4,4-difluoro-8′-methyl-1′,5′-dioxo-1′,5′-dihydro-2′H-spiro[cyclohexane-1,3′-imidazo[1,5-a]pyridin]-6′-yl)amino]-5,7-dihydro-6H-pyrrolo[3,4-d]pyrimidine-6-carboxylate]", "IC50": 30.2}
{"smiles": "Cc1cc(Nc2ncnc3[nH]ncc23)c(=O)n2c1C(=O)NC21CCC(F)(F)CC1", "note": "[Example 105, 4,4-Difluoro-8′-methyl-6′-(1H-pyrazolo[3,4-d]pyrimidin-4-ylamino)-2′H-spiro[cyclohexane-1,3′-imidazo[1,5-a]pyridine]-1′,5′-dione]", "IC50": 8.3}
{"smiles": "Cc1cc(Nc2ncnc3[nH]cnc23)c(=O)n2c1C(=O)NC21CCC(F)(F)CC1", "note": "[Example 106, 4,4-Difluoro-8′-methyl-6′-(9H-purin-6-ylamino)-2′H-spiro[cyclohexane-1,3′-imidazo[1,5-a]pyridine]-1′,5′-dione]", "IC50": 3.5}
{"smiles": "Cc1cc(Nc2ncnc3sc(C(N)=O)c(C)c23)c(=O)n2c1C(=O)NC21CCCC1", "note": "[Example 107, 5-Methyl-4-[(8′-methyl-1′,5′-dioxo-1′,5′-dihydro-2′H-spiro[cyclopentane-1,3′-imidazo[1,5-a]pyridin]-6′-yl)amino]thieno[2,3-d]pyrimidine-6-carboxamide]", "IC50": 111}
{"smiles": "Cc1cc(Nc2ncnc3cc(Cl)ccc23)c(=O)n2c1C(=O)NC21CCCCC1", "note": "[Example 108, 6′-[(7-Chloroquinazolin-4-yl)amino]-8′-methyl-2′H-spiro[cyclohexane-1,3′-imidazo[1,5-a]pyridine]-1′,5′-dione]", "IC50": 16.5}
{"smiles": "Cc1cc(Nc2ncnc3cccc(Cl)c23)c(=O)n2c1C(=O)NC21CCCCC1", "note": "[Example 109, 6′-[(5-Chloroquinazolin-4-yl)amino]-8′-methyl-2′H-spiro[cyclohexane-1,3′-imidazo[1,5-a]pyridine]-1′,5′-dione]", "IC50": 10.2}
{"smiles": "Cc1cc(Nc2ncnc3c(Cl)cc(Cl)cc23)c(=O)n2c1C(=O)NC21CCCCC1", "note": "[Example 110, 6′-[(6,8-Dichloroquinazolin-4-yl)amino]-8′-methyl-2′H-spiro[cyclohexane-1,3′-imidazo[1,5-a]pyridine]-1′,5′-dione]", "IC50": 5580}
{"smiles": "Cc1cc(Nc2ncnc3c(F)cccc23)c(=O)n2c1C(=O)NC21CCCCC1", "note": "[Example 111, 6′-[(8-Fluoroquinazolin-4-yl)amino]-8′-methyl-2′H-spiro[cyclohexane-1,3′-imidazo[1,5-a]pyridine]-1′,5′-dione]", "IC50": 517}
{"smiles": "Cc1cc(Nc2ncnc3cc(F)ccc23)c(=O)n2c1C(=O)NC21CCCCC1", "note": "[Example 112, 6′-[(7-Fluoroquinazolin-4-yl)amino]-8′-methyl-2′H-spiro[cyclohexane-1,3′-imidazo[1,5-a]pyridine]-1′,5′-dione]", "IC50": 25.3}
{"smiles": "Cc1cc(Nc2ncnc3ccc(F)cc23)c(=O)n2c1C(=O)NC21CCCCC1", "note": "[Example 113, 6′-[(6-Fluoroquinazolin-4-yl)amino]-8′-methyl-2′H-spiro[cyclohexane-1,3′-imidazo[1,5-a]pyridine]-1′,5′-dione]", "IC50": 15.4}
{"smiles": "Cc1cc(Nc2ncnc3cc(F)cc(F)c23)c(=O)n2c1C(=O)NC21CCCCC1", "note": "[Example 114, 6′-[(5,7-Difluoroquinazolin-4-yl)amino]-8′-methyl-2′H-spiro[cyclohexane-1,3′-imidazo[1,5-a]pyridine]-1′,5′-dione]", "IC50": 8.6}
{"smiles": "Cc1cc(Nc2ncnc3c(F)c(F)ccc23)c(=O)n2c1C(=O)NC21CCCCC1", "note": "[Example 115, 6′-[(7,8-Difluoroquinazolin-4-yl)amino]-8′-methyl-2′H-spiro[cyclohexane-1,3′-imidazo[1,5-a]pyridine]-1′,5′-dione]", "IC50": 208}
{"smiles": "COc1ccc2c(Nc3cc(C)c4n(c3=O)C3(CCCCC3)NC4=O)ncnc2c1", "note": "[Example 116, 6′-[(7-Methoxyquinazolin-4-yl)amino]-8′-methyl-2′H-spiro[cyclohexane-1,3′-imidazo[1,5-a]pyridine]-1′,5′-dione]", "IC50": 4}
{"smiles": "COc1ccc2ncnc(Nc3cc(C)c4n(c3=O)C3(CCCCC3)NC4=O)c2c1", "note": "[Example 117, 6′-[(6-Methoxyquinazolin-4-yl)amino]-8′-methyl-2′H-spiro[cyclohexane-1,3′-imidazo[1,5-a]pyridine]-1′,5′-dione]", "IC50": 12.5}
{"smiles": "COc1cccc2ncnc(Nc3cc(C)c4n(c3=O)C3(CCCCC3)NC4=O)c12", "note": "[Example 118, 6′-[(5-Methoxyquinazolin-4-yl)amino]-8′-methyl-2′H-spiro[cyclohexane-1,3′-imidazo[1,5-a]pyridine]-1′,5′-dione]", "IC50": 66.3}
{"smiles": "COc1cc2ncnc(Nc3cc(C)c4n(c3=O)C3(CCCCC3)NC4=O)c2cc1OC", "note": "[Example 119, 6′-[(6,7-Dimethoxyquinazolin-4-yl)amino]-8′-methyl-2′H-spiro[cyclohexane-1,3′-imidazo[1,5-a]pyridine]-1′,5′-dione]", "IC50": 3}
{"smiles": "Cc1cc(Nc2ncnc3c(C)cccc23)c(=O)n2c1C(=O)NC21CCCCC1", "note": "[Example 120, 8′-methyl-6′-[(8-methylquinazolin-4-yl)amino]-2′H-spiro[cyclohexane-1,3′-imidazo[1,5-a]pyridine]-1′,5′-dione]", "IC50": "> 20000"}
